The structures appear in SMILES notation. In brackets after ≈: the same amount, converted by molar mass.

From ChEMBL document CHEMBL5260828, “Amphiphilic glycoconjugates as potential anti-cancer chemotherapeutics” (Eur J Med Chem, 2018) come the findings set out here.

Assay type in all cases: functional, cell-based
The subject of one experiment is HL-60. Put plainly: Cytotoxicity against human HL-60 cells assessed as inhibition of cell proliferation incubated for 72 hrs by MTT assay. As to conditions: HL-60, 72 h.
The test system of a further experiment is HeLa. Put plainly: Cytotoxicity against human HeLa cells assessed as inhibition of cell proliferation incubated for 72 hrs by MTT assay.
The test system of the next experiment is NCI-H69. Put plainly: Cytotoxicity against human NCI-H69 cells.
Another experiment relates to B16. Put plainly: Cytotoxicity against mouse B16 cells.
For the next experiment, the system named is P388/ADM. Put plainly: Cytotoxicity against mouse P388/ADM cells.
Experiment [1] relates to HeLa S3. Put plainly: Cytotoxicity against human HeLa S3 cells.
A further experiment deals with P388. Put plainly: Cytotoxicity against mouse P388 cells.
The subject of the next experiment is HCT-116. Put plainly: Cytotoxicity against human HCT-116 cells assessed as cell growth inhibition incubated for 72 hrs by celltiter 96 aqueous cell proliferation assay. Particulars: HCT-116, 72 h.
The next experiment concerns MIA PaCa-2. Put plainly: Cytotoxicity against human MIA PaCa-2 cells assessed as inhibition of cell growth incubated for 72 hrs by CellTiter 96 aqueous one solution assay. As to conditions: MIA PaCa-2, 72 h.
The subject of another experiment is PK9. Put plainly: Cytotoxicity against human PK9 cells assessed as inhibition of cell growth incubated for 72 hrs by CellTiter 96 aqueous one solution assay. As to conditions: PK9, 72 h.
Experiment [2] concerns HeLa S3. Put plainly: Cytotoxicity against human HeLa S3 cells assessed as inhibition of cell proliferation incubated for 72 hrs by MTT assay. Particulars: HeLa S3, 72 h.
Where [3] appears, read: Homo sapiens, NCI-H69, read-out: IC50.
Setting [4] is: Mus musculus, P388/ADM, read-out: IC50.
Where [5] appears, read: Homo sapiens, HeLa S3, read-out: IC50.
Setting [6] is: Mus musculus, B16, read-out: IC50.
The mark [7] stands for this setting: Mus musculus, P388, read-out: IC50.

For the compound `C/C=C/C/C(C)=C\[C@H]1C/C=C/C=C/C[C@H](C)/C=C(\C)[C@@H](OC)C/C=C/[C@@H](O)CC(=O)O1`, the IC50 was found to be 0.03 µM in the experiment with HL-60 and 0.049 µM in the experiment on HeLa.
Take `C/C=C(\C)C(O[C@@H]1O[C@H](CO)[C@@H](O)[C@H](O)[C@H]1O)C(C)/C=C(C)/C=C/CC(C)(O)/C=C/c1nc(OC)c(OC)c(O)c1C` (stereo in doubt; 283): the IC50 in the experiment on NCI-H69 (setting [3]) turned out to be 0.47 µg/mL (≈ 0.792 µM); in the experiment with B16 (b16), 0.32 µg/mL (≈ 0.539 µM); with P388/ADM (setting [4]), 4.3 µg/mL (≈ 7.24 µM); in the experiment on HeLa S3 [1] (setting [5]) it was 0.62 µg/mL (≈ 1.04 µM); in the experiment with P388 (p388), 0.58 µg/mL (≈ 0.977 µM).
With `C/C=C/C/C(C)=C\[C@H]1C/C=C/C=C/C[C@H](C)/C=C(\C)[C@@H](OC)CCC[C@@H](O[C@@H]2O[C@H](CO)[C@@H](O)[C@H](OC)[C@H]2O)CC(=O)O1`, the IC50 with HL-60 was found to be 0.071 µM; in the experiment on HeLa it was 0.19 µM.
Take `C/C=C(\C)C(O[C@@H]1O[C@H](CO)[C@@H](O)[C@H](O)[C@H]1O)C(C)/C=C(C)/C=C/CC(C)(O)/C=C/c1nc(OC)c(OC)c(O)c1C` (stereo in doubt; 284): the IC50 in the experiment with NCI-H69 (nci-h69) amounted to 0.83 µg/mL (≈ 1.4 µM); in the experiment with B16 (b16), 0.67 µg/mL (≈ 1.13 µM); in the experiment on P388/ADM (p388/adm), 4.2 µg/mL (≈ 7.07 µM); in the experiment with HeLa S3 [1] (hela s3), 0.98 µg/mL (≈ 1.65 µM); with P388 (p388), 2.5 µg/mL (≈ 4.21 µM).
`CO[C@@H]1/C=C(\C)C[C@H](/C=C/C=C/C#C[C@@H]2C[C@H]2Cl)OC(=O)C[C@]2(O)C[C@H](O[C@@H]3O[C@@H](C)[C@H]4NC(=O)O[C@@]4(C)[C@H]3OC)[C@H](C)[C@@H](O2)[C@@H]1C`: in the experiment with HCT-116, the IC50 is 61.9 µM.
For the compound `COc1nc(C/C=C(\C)C/C=C/C(C)=C/[C@@H](C)[C@@H](O[C@@H]2O[C@H](CO)[C@@H](O)[C@H](O)[C@H]2O)/C(C)=C/CO)c(C)c(O)c1OC`, the IC50 stood at 0.066 µg/mL (≈ 0.111 µM) in the experiment on NCI-H69 (setting [3]); 0.21 µg/mL (≈ 0.354 µM) in the experiment with B16 (setting [6]); 0.78 µg/mL (≈ 1.31 µM) in the experiment with P388/ADM (setting [4]); 0.76 µg/mL (≈ 1.28 µM) with HeLa S3 [1] (setting [5]); 1.6 µg/mL (≈ 2.69 µM) in the experiment on P388 (setting [7]).
For the compound `C/C=C/C/C(C)=C\[C@H]1C/C=C/C=C/C[C@H](C)/C=C(\C)[C@@H](OC)CCC[C@@H](O)CC(=O)O1`, the values for the concentration for half-maximal inhibition (IC50) in the experiment on HL-60 and in the experiment with HeLa were 0.024 µM and 0.046 µM, respectively.
Take `CCCCCCCCCCCCc1cn(C[C@@H]2N[C@@H](C)[C@@H](O)[C@H]2O)nn1`: the IC50 with MIA PaCa-2 and in the experiment on PK9 was 19 µM each time.
In the case of `CCCCCCCCCCCCc1cn(CC[C@H]2NC[C@@H](O)[C@H]2O)nn1`, the IC50 in the experiment on MIA PaCa-2 and in the experiment with PK9 was 19 µM in each case.
In the case of `C/C=C(\C)[C@H](O[C@@H]1O[C@H](CO)[C@@H](O)[C@H](O)[C@H]1O)[C@H](C)/C=C(C)/C=C/C/C(C)=C/Cc1nc(OC)c(OC)c(O)c1C`, the IC50 with NCI-H69 (setting [3]) is 0.019 µg/mL (≈ 0.0329 µM); in the experiment with B16 (setting [6]), 0.0074 µg/mL (≈ 0.0128 µM); in the experiment on P388/ADM (setting [4]), 0.25 µg/mL (≈ 0.433 µM); with HeLa S3 [1] (setting [5]), 0.11 µg/mL (≈ 0.19 µM); in the experiment with P388 (setting [7]), 0.36 µg/mL (≈ 0.623 µM).
Regarding `CCCCCCCCCCCCc1cn(C[C@H]2NC[C@H](O)[C@@H]2O)nn1`, the IC50 with MIA PaCa-2 and in the experiment on PK9 was 19 µM each time.
Turning to `C/C=C/C/C(C)=C/[C@H]1C/C=C/C=C/C[C@H](C)/C=C(\C)[C@@H](OC)C/C=C/[C@@H](O[C@@H]2O[C@H](CO)[C@@H](O)[C@H](OC)[C@H]2O)CC(=O)O1`, the IC50 in the experiment with HL-60 came to 0.66 µM; with HeLa, 3.1 µM.
For `CO[C@@H]1[C@H](O[C@H]2C[C@]3(O)O[C@H]([C@@H]2C)[C@H](C)[C@H](OC)/C=C(\C)C[C@H](/C=C/C#C[C@H]2C[C@@H]2Cl)OC(=O)[C@H]3C)O[C@@H](C)[C@H]2NC(=O)O[C@]21C`, the IC50 with HCT-116 came out at 30 µM.
With `C=C1[C@@H](OC)C/C=C/[C@@H](O[C@@H]2O[C@H](CO)[C@@H](O)[C@H](OC)[C@H]2O)CC(=O)O[C@@H](/C=C(/C)C/C=C/C)C/C=C/C=C/C[C@H](C)[C@@H]1OO`, the IC50 with HeLa S3 [2] is greater than 10 µM.
Consider `CCCCCCCC/C=C\CCCCCCCCNC(=O)[C@H]1[C@@H]2OC(C)(C)O[C@@H]2[C@](C)(CO)N1CCCC`, for which the results for the IC50 in the experiment on MIA PaCa-2 and with PK9 were 3.6 µM and 17 µM, respectively.
